# Data as given in US7456161B2 (Epigenesis Pharmaceuticals, LLC, priority 2001, dated 2008).
# “Also recorded” adds a separate entry of the source.
# Assays:
# Intracellular Adenosine = test: In vivo effect on adenosine levels in various rat tissues (HPLC, spectrofluorometric detection)
# Experimental: Folinic acid (50 mg/kg) was administered intraperitoneally once daily for fourteen days. […] Hearts were removed from animals and flash frozen in liquid nitrogen with 10 seconds of death. Liver and lungs were removed en bloc and flash frozen within 30 seconds of death. Brain tissue was subsequently dissected.
# HT-29 SF cells [1] = test: DHEA effect on cell growth (cell number, Coulter counter) and its reversal by supplements; format: cell-based, human; details: 12.5-200 μM, 24-72 hours
# HT-29 SF cells [2] = test: Cell cycle distribution by flow cytometry (propidium iodide) and reversal of the DHEA effect; format: cell-based, human; details: for cell morphology: HT-29 SF cells exposed to DHEA, data not shown
smiles,measurement,setting,value
"Nc1nc(=O)c2c([nH]1)NCC(CNc1ccc(C(=O)N[C@@H](CCC(=O)O)C(=O)O)cc1)N2C=O (mixture of isomers) [Folinic Acid (F.A.), Folinic acid]",effect on tissue adenosine levels (in words),"Intracellular Adenosine; rats, daily for two weeks, listed as Folinic acid",increase in adenosine levels for all organs studied
same,effect on tissue adenosine levels (in words),"Intracellular Adenosine; rats, daily for two weeks, listed as folinic acid",completely abrogated steroid-mediated adenosine depletion
"C[C@]12CC[C@H](O)CC1=CC[C@@H]1[C@@H]2CC[C@]2(C)C(=O)CC[C@@H]12 [DHEA, (3β)-3-hydroxyandrost-5-en-17-one]",inhibition of growth of HT-29 SF cells (in words),HT-29 SF cells [1],time- and dose-dependent inhibition of growth
same,cell cycle distribution,"HT-29 SF cells [2]; 200 μM DHEA, after 24 hours",increase in the percentage of cells in G1 and a decreased proportion of cells in S phase
same,"effect on cell cycle (G1, S phase) with time of exposure (in words)","HT-29 SF cells [2]; 25-200 μM DHEA, 24-72 hours",G1 block in HT-29 SF cells in a time-and dose-dependent manner; also recorded: progressively reduced the proportion of cells in S phase
same,cell morphology,HT-29 SF cells [2],acquiring a rounded shape
same,effect on tissue adenosine levels (in words),"Intracellular Adenosine; rat, in vivo",multi-organ depletion of adenosine
"C[C@@](O)(CCO)CC(=O)O [MVA, mevalonic acid, reference compound]",prevention of DHEA-induced S phase depletion,"HT-29 SF cells [2]; 25 FM DHEA, 72 hours",not after 72 hours
same,cell morphology,HT-29 SF cells [2],prevented only by the addition of MVA
"C[C@]12CCC(=O)C=C1CC[C@@H]1[C@@H]2CC[C@@]2(C)[C@H]1CC[C@]2(C)O [Methyltestosterone, methyltestosterone]",effect on tissue adenosine levels (in words),"Intracellular Adenosine; rats, daily for two weeks",multi-organ depletion of adenosine
